Literature values as cited in patent US8415362B2, “Pyrazolyl substituted pyrrolo[2,3-b]pyrimidines as Janus kinase inhibitors” (Incyte Corporation, priority 2005, dated 2013).

Columns and labels:
JAK3 = target: T1, JAK3 (Mus musculus, UniProt Q62137)
T1 construct: host or cells: NOD mouse (in vivo)
T1 sequence (Q62137 1-1100): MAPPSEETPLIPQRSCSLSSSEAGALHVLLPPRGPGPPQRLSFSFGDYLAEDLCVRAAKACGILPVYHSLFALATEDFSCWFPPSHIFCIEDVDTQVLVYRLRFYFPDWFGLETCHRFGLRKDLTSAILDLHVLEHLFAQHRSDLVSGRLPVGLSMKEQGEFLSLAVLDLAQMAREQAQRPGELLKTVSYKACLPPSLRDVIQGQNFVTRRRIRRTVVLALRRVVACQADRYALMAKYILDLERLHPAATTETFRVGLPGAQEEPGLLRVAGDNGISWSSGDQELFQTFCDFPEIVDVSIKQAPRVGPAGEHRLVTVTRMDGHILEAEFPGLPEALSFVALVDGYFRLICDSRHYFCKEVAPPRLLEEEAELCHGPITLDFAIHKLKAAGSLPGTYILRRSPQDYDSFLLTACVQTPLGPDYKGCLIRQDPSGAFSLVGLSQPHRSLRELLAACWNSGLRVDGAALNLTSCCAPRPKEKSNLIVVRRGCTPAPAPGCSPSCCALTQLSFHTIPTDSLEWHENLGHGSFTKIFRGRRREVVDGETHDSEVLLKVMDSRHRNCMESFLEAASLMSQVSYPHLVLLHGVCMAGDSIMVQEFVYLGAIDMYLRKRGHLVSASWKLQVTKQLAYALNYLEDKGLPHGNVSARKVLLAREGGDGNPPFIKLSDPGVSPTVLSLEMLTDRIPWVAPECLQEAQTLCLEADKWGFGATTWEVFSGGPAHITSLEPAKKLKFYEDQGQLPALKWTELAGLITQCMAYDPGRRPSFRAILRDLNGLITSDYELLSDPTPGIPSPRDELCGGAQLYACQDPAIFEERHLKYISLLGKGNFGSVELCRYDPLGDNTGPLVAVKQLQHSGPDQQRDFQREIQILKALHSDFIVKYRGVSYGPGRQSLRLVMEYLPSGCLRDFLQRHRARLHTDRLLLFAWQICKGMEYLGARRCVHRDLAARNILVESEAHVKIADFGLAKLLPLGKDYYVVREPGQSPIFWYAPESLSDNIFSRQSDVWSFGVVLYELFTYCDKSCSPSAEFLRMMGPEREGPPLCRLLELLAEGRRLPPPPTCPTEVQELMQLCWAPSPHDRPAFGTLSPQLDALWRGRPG

[1] = some patients
[2] = tested on: myeloid dendritic cells (DCs); conditions: DCs arrested at an immature level
[3] = tested on: IL-6-dependent MM cell lines

For `COc1cc2ncnc(Nc3ccc(O)cc3)c2cc1OC` [JANEX-1], the onset of diabetes (JAK3; NOD mouse model of autoimmune type I diabetes) is given as “delayed the onset of diabetes” and the immunomodulatory activity (JAK3; mouse, in vivo) is given as “potent immunomodulatory activity”.
In the case of `C#Cc1cccc(Nc2ncnc3cc(OCCOC)c(OCCOC)cc23)c1` [Tarceva], the acneiform rash [1] is given as “induced acneiform rash”.
For `COc1cc2ncnc(Nc3ccc(O)c(Br)c3)c2cc1OC` [WHI-P-154], the “CD40-induced effects (JAK3 activity, costimulatory molecule expression, IL-12 production, allogeneic stimulatory capacity)” value [2] is given as “prevented these effects”.
In the case of `N#C/C(=C\c1ccc(O)c(O)c1)C(=O)NCc1ccccc1` [tyrphostin AG490], the “ERK2 and STAT3 phosphorylation” value ([3]; IL-6-dependent MM cell lines) is given as “inhibited”, the JAK2 kinase activity ([3]; IL-6-dependent MM cell lines) is given as “inhibited” and the apoptosis ([3]; IL-6-dependent MM cell lines) is given as “induced”. For the same compound, the cell proliferation ([3]; IL-6-dependent MM cell lines) was “suppressed” and the “dormancy of tumor cells” value ([3]; in some cases, then protects the tumor cells from death) was “induce dormancy of tumor cells”.
